Test [1] deals with T1, 5-hydroxytryptamine receptor 1A (Homo sapiens) (UniProt P08908).
T1 sequence (whole entry): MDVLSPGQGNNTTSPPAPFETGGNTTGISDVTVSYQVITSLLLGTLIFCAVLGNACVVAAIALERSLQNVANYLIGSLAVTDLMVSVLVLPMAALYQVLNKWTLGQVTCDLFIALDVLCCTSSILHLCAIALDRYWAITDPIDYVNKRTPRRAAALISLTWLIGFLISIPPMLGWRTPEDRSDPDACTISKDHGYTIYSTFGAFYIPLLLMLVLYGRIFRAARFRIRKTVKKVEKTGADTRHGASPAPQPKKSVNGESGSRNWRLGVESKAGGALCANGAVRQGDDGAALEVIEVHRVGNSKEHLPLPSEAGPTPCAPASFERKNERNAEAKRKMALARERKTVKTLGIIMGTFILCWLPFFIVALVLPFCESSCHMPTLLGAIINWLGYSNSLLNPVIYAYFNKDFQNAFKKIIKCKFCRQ
The test is described as follows: Displacement of [3H]-8-OH-DPAT from 5HT1A receptor (unknown origin) at 10 uM.

The target of test [2] is T2, 5-hydroxytryptamine receptor 1B (Homo sapiens, UniProt P28222). The test is described as follows: Displacement of [3H]GR125743 from 5HT1B receptor (unknown origin) at 10 uM.
The target of test [3] is 5-hydroxytryptamine receptor 1D (Homo sapiens) (UniProt P28221). The experiment in a line: Displacement of [3H]GR125743 from 5HT1D receptor (unknown origin) at 10 uM. In general terms: Displacement assays read how much labelled ligand stays bound in the presence of the test substance.
Test [4] has as its target 5-hydroxytryptamine receptor 1E (Homo sapiens) (UniProt P28566). The test is described as follows: Displacement of [3H]5HT from 5HT1E receptor (unknown origin) at 10 uM.
The target of test [5] is 5-hydroxytryptamine receptor 2A (Homo sapiens) (UniProt P28223). The experiment in a line: Displacement of [3H]ketanserin from 5HT2A receptor (unknown origin) at 10 uM.
The target of test [6] is T3, 5-hydroxytryptamine receptor 2B (Homo sapiens, UniProt P41595). The experiment in a line: Displacement of [3H]LSD from 5HT2B receptor (unknown origin) at 10 uM.
In test [7] the target is T4, 5-hydroxytryptamine receptor 2C (Homo sapiens) (UniProt P28335).
T4 sequence (whole entry): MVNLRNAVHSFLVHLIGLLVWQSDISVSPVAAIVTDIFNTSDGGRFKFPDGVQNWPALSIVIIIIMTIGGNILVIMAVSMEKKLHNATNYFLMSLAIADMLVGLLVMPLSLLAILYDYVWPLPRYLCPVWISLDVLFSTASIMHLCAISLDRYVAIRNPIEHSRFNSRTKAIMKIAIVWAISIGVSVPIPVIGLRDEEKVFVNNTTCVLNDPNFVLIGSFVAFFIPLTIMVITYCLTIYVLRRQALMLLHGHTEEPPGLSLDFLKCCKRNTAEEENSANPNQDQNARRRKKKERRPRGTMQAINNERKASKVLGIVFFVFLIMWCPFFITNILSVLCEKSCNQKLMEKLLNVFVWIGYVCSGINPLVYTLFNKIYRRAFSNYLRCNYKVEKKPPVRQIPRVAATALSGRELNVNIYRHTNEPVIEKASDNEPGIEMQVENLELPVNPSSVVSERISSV
The experiment in a line: Displacement of [3H]mesulergine from 5HT2C receptor (unknown origin) at 10 uM.

In test [8] the target is 5-hydroxytryptamine receptor 7 (Homo sapiens) (UniProt P34969). The test is described as follows: Displacement of [3H]LSD from 5HT7 receptor (unknown origin) at 10 uM.
The target in test [9] is T3, 5-hydroxytryptamine receptor 2B. The test is described as follows: Displacement of [3H]LSD from 5HT2B receptor (unknown origin).
The target of test [10] is T5, 5-hydroxytryptamine receptor 3A (Homo sapiens) (UniProt P46098).
T5 sequence (whole entry): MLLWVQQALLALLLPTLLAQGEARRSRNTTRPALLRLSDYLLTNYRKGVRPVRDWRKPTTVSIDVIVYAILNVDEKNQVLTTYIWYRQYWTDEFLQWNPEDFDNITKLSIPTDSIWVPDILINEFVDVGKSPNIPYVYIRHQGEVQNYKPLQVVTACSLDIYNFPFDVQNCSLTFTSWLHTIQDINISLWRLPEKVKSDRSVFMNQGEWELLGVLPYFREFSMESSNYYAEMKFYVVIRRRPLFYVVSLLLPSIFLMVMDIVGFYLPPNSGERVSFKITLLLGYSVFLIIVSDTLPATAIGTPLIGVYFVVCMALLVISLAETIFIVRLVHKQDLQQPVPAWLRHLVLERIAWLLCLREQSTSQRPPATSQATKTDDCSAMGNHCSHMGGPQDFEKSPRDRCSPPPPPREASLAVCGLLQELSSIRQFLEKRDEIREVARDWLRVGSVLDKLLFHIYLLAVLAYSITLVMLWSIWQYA
The experiment in a line: Displacement of [3H]LY278584 from 5HT3 receptor (unknown origin) at 10 uM.

The target of test [11] is 5-hydroxytryptamine receptor 5A (Homo sapiens) (UniProt P47898). The experiment in a line: Displacement of [3H]LSD from 5HT5A receptor (unknown origin) at 10 uM.
Test [12] has as its target T2, 5-hydroxytryptamine receptor 1B. The experiment in a line: Displacement of [3H]GR125743 from 5HT1B receptor (unknown origin).

Chain of 5-hydroxytryptamine receptor 7 (Homo sapiens) (P34969 whole entry): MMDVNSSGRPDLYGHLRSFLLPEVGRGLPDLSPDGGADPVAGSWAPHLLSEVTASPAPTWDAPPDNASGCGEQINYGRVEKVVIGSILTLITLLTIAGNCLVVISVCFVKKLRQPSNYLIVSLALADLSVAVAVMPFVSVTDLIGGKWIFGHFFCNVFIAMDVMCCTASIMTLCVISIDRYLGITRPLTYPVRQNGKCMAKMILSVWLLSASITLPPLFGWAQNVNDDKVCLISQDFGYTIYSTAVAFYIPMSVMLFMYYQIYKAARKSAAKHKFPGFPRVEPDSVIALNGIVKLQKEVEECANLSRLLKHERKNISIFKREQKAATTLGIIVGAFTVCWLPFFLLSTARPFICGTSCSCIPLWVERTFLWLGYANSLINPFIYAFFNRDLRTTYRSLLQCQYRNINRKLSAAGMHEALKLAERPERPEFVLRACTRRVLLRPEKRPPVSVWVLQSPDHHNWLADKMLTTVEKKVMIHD
Chain of 5-hydroxytryptamine receptor 1E (Homo sapiens) (P28566 whole entry): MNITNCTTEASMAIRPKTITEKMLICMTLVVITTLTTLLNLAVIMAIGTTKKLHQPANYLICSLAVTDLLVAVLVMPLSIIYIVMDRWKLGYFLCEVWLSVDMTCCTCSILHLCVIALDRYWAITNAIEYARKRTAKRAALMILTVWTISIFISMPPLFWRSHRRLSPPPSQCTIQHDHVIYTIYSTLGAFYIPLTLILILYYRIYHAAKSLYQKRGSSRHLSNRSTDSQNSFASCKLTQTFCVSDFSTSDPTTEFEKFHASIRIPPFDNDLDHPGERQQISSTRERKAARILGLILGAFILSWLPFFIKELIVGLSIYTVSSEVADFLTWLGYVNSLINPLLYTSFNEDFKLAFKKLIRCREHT
Chain of 5-hydroxytryptamine receptor 1D (Homo sapiens) (P28221 whole entry): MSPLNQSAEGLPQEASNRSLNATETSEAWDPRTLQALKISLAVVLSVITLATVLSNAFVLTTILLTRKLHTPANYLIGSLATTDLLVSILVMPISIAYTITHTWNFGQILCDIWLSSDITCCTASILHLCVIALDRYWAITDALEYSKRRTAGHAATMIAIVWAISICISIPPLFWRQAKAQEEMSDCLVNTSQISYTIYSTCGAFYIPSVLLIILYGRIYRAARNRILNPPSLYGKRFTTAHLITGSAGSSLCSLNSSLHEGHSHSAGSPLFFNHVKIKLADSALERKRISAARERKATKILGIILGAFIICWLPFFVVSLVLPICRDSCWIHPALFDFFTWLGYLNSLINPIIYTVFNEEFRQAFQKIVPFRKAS
T2 sequence (P28222 whole entry): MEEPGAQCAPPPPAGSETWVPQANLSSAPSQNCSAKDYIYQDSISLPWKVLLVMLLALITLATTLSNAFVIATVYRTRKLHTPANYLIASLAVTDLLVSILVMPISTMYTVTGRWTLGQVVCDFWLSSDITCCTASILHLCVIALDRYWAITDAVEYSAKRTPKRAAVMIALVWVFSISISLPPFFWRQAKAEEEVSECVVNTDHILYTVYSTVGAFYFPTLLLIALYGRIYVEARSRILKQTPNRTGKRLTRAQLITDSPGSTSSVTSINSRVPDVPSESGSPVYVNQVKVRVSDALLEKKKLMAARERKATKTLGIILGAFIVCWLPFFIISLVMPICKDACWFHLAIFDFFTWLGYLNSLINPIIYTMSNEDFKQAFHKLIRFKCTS
T3 sequence (P41595 whole entry): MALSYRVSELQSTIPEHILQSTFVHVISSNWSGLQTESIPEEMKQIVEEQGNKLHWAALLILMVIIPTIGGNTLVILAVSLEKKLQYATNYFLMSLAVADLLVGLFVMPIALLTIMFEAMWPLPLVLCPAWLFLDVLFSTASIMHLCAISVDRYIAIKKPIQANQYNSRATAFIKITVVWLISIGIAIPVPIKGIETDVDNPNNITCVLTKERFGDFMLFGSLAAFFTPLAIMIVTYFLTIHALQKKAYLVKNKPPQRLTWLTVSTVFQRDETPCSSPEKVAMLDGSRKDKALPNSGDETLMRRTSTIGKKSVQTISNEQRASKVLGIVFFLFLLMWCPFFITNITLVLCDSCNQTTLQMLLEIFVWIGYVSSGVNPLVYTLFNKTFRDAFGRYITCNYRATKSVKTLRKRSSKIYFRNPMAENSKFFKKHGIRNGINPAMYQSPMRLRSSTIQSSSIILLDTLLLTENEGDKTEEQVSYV
Chain of 5-hydroxytryptamine receptor 5A (Homo sapiens) (P47898 whole entry): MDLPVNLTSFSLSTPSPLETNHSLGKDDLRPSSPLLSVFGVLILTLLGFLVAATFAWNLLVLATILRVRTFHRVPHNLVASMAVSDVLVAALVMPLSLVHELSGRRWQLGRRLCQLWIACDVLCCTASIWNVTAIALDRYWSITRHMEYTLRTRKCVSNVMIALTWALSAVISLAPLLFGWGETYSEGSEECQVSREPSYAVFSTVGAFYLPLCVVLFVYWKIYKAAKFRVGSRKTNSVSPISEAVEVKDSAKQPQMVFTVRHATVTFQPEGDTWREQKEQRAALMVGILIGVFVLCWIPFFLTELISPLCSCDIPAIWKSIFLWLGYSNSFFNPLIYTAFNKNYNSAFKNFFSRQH
Chain of 5-hydroxytryptamine receptor 2A (Homo sapiens) (P28223 whole entry): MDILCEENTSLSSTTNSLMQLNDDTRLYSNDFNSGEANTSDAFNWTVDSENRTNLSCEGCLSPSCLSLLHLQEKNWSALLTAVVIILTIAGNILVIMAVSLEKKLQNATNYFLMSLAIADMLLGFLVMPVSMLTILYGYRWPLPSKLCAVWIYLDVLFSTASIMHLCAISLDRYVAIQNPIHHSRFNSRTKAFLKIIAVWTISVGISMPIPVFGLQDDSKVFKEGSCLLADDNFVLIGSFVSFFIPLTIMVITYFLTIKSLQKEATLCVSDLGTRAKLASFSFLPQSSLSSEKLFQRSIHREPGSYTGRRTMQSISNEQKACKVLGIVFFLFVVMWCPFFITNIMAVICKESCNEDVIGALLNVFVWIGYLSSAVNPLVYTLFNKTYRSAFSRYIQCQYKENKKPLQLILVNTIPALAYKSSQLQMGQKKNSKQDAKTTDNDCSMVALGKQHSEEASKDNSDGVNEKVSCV

On to `COc1cc2c3c(c1OC)-c1cc4c(cc1CC3N(CC1CC1)CC2c1ccccc1)OCO4` (stereo not given), for which the inhibition (usually the drop in the measured response relative to a control, in per cent) amounted to 13.3% in test [1]; 16.2% in test [2]; 22.4% in test [3]; 3.5% in test [4]; 9.6% in [5]; 73.7% in test [6]. Besides, the inhibition was determined as 9.4% in test [7] and 18.3% in test [8]. Moreover, the affinity in test [9], expressed as Ki, was 1.43 µM.

As to `CCOc1c(OC)cc2c3c1-c1cc4c(cc1CC3N(C)CC2c1ccccc1)OCO4` (stereo not given), the inhibition was -0.9% in test [1]; 20.6% in [2]; 29.7% in [3]; 10.3% in test [4]; 40.1% in [5]; 83.3% in test [6]. The inhibition was 13.5% in test [7], -2.7% in test [10], -7.6% in test [11] and 26% in [8]. Also, the Ki (commonly a dissociation constant, usually derived from enzyme kinetics or from competition with a known ligand) in [9] was 0.209 µM.

In the case of `C=CCOc1c(OC)cc2c3c1-c1cc4c(cc1CC3N(C)CC2c1ccccc1)OCO4` (stereo not given), the inhibition in test [1] was found to be 19.2%; in test [2] it was 19.4%; in test [3], 22.6%; in [4] it was 3.3%; in test [5] it was 47.8%; in test [6] it was 72.1%. The inhibition in test [7] is 28.8%; in test [10] it was 8.3%; in test [11], -9.8%; in test [8], 24.7%. In addition, the Ki in test [9] is 0.416 µM.

Turning to `CCCCOc1c(OC)cc2c3c1-c1cc4c(cc1CC3N(C)CC2c1ccccc1)OCO4` (stereo not given), the inhibition was determined as 18.4% in test [1]; 41.4% in test [2]; 24% in test [3]; 7.3% in test [4]; 40.9% in test [5]; 76.1% in test [6]. The inhibition in [7] was 48%; in [10], 11.6%; in test [11], 17.6%; in test [8], -5.1%. The affinity in [9] corresponds to a Ki of 0.601 µM.

For `COc1cc2c3c(c1O)-c1cc4c(cc1CC3N(C)CC2c1ccccc1)OCO4` (stereo not given), the inhibition in test [1] is 24.2%; in [2], -5.2%; in test [3], 15.8%; in [4] it was 11%; in test [5] it was 29.2%; in test [6], 50.3%. Further, the inhibition was -2.3% in [7], 4.1% in test [10], 1.8% in test [11] and 31.3% in test [8]. Further, affinity in test [9] was put at a Ki of 0.715 µM.

As to `COc1cc2c3c(c1OCC1CC1)-c1cc4c(cc1CC3N(C)CC2c1ccccc1)OCO4` (stereo not given), the inhibition in test [1] was -9.8%; in test [2], 60.2%; in [3], 31.9%; in [4] it was 27.4%; in test [5], 42.9%; in test [6], 77.1%. Besides, the inhibition in [7] came out at 32.4%; in test [10], 7.7%; in [11], 5.2%; in test [8], 6.9%. Moreover, the results for the Ki in test [12] and in test [9] were 2.47 µM and 0.299 µM, respectively.

On to `CCCOc1c(OC)cc2c3c1-c1cc4c(cc1CC3N(C)CC2c1ccccc1)OCO4` (stereo not given), for which the inhibition is 27% in test [1]; 51.7% in test [2]; 22.4% in test [3]; 2.1% in test [4]; 32.3% in test [5]; 84% in test [6]. Besides, the inhibition in test [7] came to 13.1%; in test [10], 0.7%; in test [11] it was 5.2%; in test [8], 8.6%. Moreover, the Ki was 1.61 µM in test [12] and 0.307 µM in [9].

With `CCCCCCOc1c(OC)cc2c3c1-c1cc4c(cc1CC3N(C)CC2c1ccccc1)OCO4` (stereo not given), the inhibition in test [2] is 4.3%; in test [3], 13.4%; in test [4], 2.4%; in test [5], 19.9%; in [6], 63.6%; in [7], 49.3%. Moreover, the inhibition was 0.8% in [10] and -6.2% in test [11]. Also, the Ki in test [9] amounted to 0.663 µM.

With `COc1cc2c3c(c1OCc1ccc(Br)cc1)-c1cc4c(cc1CC3N(C)CC2c1ccccc1)OCO4` (stereo not given), the inhibition is 25.9% in test [1]; 2.1% in test [2]; 9.8% in [3]; -0.1% in test [4]; 15.8% in [5]; 24.4% in test [6]. Besides, the inhibition in test [7] was -6.6%; in test [10], -7.4%; in test [11], -9.3%.

As to `CCN1CC(c2ccccc2)c2cc(OC)c(OC)c3c2C1Cc1cc2c(cc1-3)OCO2` (stereo not given), the inhibition in test [1] amounted to 3.3%; in [2], 23.6%; in test [3], 27.4%; in test [4], 5%; in test [5], 12.8%; in test [6] it was 88.4%. In addition, the inhibition is -1.6% in [7], -4.1% in test [10] and 8.9% in test [8]. Moreover, the affinity in test [9] corresponds to a Ki of 0.419 µM.
